Experimental data as given in US12384751B2, “Allosteric activators of the ALPHA1A-adrenergic receptor” (The Cleveland Clinic Foundation, priority 2019, dated 2025).
“Also recorded” adds a separate entry of the source. Read-outs that look alike come from different tables or passages of the source.

Assays:
[1] = tested on: 3×TG Alzheimer's Disease (AD) mouse model; experiment: Hippocampal CA1 electrophysiology (LTP, input-output, paired-pulse ratio) in 3×TG mice; assay type: in vivo
Procedure: AD mice were first randomized and sorted into control or treatment groups. […] 14 AD mice from each treatment group received Compound 3 in the drinking water (2.611 mg/kg/bw) to deliver a daily dose near the peak potentiation of the cAMP response in the brain at 10^−8M based upon the PAM assay and pharmacokinetics. This was achieved by adding Compound 3 to the drinking water at 32 uM, assuming the mice drink 6 ml/day, with only 10% of bioavailable drug reaching the brain. The drug was administered in the drinking water for 10 months, starting at age 2 months, then subjected to either different cognitive behavioral tests or electrophysiology at age 12 months to maximize the manifestations of AD symptoms in these mice. Mice are maintained on the drug for the duration of the studies and blinded to the operator.
At 12 months of age mice were subjected to long term potentiation (LTP) (FIG. 25).
Electrophysiology. Hippocampi are removed and slices cut 400 μm thick and immediately transferred to an oxygenated holding chamber filled with artificial cerebrospinal fluid, acclimated and transferred to recording chambers. Micropipettes are backfilled with NaCl solution and placed in the stratum radiatum. Evoked field excitatory postsynaptic potentials (fEPSPs) are measured in current clamp mode. An ISO-flex stimulator paired with a 7.5-cm bipolar tungsten-stimulating electrode is used for presynaptic stimulation of the Schaffer collateral-commissural fibers. Signals are converted from analog to digital and electronic cycling and noise filtered. Basal synaptic transmission is assessed by determining input-output curves, generated by applying a stepwise 5 μA increase in stimulation intensity. Responses are elicited every 20 seconds with duration of 100 μs per pulse. Short-term plasticity is investigated by assessing paired-pulse facilitation (PPF) by applying two pulses with interpulse intervals of 35-300 ms. A baseline response of 30 min is recorded immediately after PPF, which is followed by θ-burst stimulation (TBS) given at 80% maximal response to induce LTP. fEPSPs are recorded at 50% maximal response every 20 seconds for 90 minutes.

[2] = target: T1, α1A-AR (Homo sapiens, UniProt P35348); experiment: Total inositol phosphate assay at α1A-AR; assay type: cell-based; parameters: expressed in transfected cells; host or cells: Rat-1 fibroblast cells
T1 sequence (P35348 1-466): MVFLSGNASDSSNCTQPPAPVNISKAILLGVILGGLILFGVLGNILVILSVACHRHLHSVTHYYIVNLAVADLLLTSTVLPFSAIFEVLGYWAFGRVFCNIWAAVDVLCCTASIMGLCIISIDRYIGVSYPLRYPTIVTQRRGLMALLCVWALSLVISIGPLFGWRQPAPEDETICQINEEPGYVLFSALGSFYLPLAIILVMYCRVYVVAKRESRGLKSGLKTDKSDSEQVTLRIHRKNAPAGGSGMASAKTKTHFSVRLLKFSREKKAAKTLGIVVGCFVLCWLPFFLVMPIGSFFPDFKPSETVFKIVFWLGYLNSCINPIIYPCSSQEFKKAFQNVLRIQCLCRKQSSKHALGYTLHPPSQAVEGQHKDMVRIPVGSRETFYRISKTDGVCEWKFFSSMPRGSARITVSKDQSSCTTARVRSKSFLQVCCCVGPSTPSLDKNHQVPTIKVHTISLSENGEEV
Procedure: Total Inositol Phosphate assay: Cells expressing a single α1-adrenergic receptor subtypes are washed and re-plated into 6-well plates containing DMEM media at approximately 5×10^5 cells/well. Cells are allowed to rest till the next day in a CO2 incubator at 37° C. The cells are washed twice with DMEM (no serum), then 2 ml of DMEM is added to each well. 2 ul of ^3H-inositol (at 1 uCi/mL, Perkin-Elmer NET 114 005MC) and 10 mM LiCl is added to each well. The cells are incubated for 1 hour at 37° C. in a CO2 incubator. […] The cells are incubated again for 1 hour at 37° C. in a CO2 incubator. The media is aspirated and 1 mL of ice-cold 0.4M perchloric acid is added. The cells are scraped, transferred to a vial, then 1 mL 0.72M KOH/0.6M KHCO3 is added, the tube vortexed and the contents centrifuged at 2000 rpm for 10 mins. The supernatant is removed and applied to BioRad polyprep columns packed with 1 mL of AG1-X8 resin (BioRad AG1-X8 resin 100-200 mesh #140-1444) in 0.1M formic acid in a holding tray which is over a plastic catch tray. The supernatant is allowed to naturally drip through the column then washed with 8 ml of 0.1M formic acid (2 ml at a time). The columns are transferred via the holding tray to a box of 20 ml scintillation vials so that the columns drip directly into the vials. Total inositol phosphates are eluted off the column with 2 ml of 0.1M formic acid/1M ammonium formate. The columns are eluted a second time into a new scintillation vial with another 2 ml of 0.1M formic acid/1M ammonium formate. 18 ml of Ecoscint A is added to each scintillation vial and vortexed. The vials are allowed to dark adapt overnight at room temperature to reduce autofluorescence. The vials are counted in a scintillation counter on the tritium channel and the cpms from the first and second fractions eluted off the columns are added together.

[3] = target: T1, α1A-AR; experiment: Competition binding with [125I]HEAT at α1A-AR (Rat-1 fibroblast membranes); parameters: expressed in transfected cells; host or cells: Rat-1 fibroblast cells
Procedure: Competition binding assays: […] Assays were performed in duplicate in HEM buffer, in a total assay volume of 1000 μl. […] The above conditions will convert all the conformations of the receptor into a single low affinity site. To show both high and low affinity sites of the receptor (typically seen with GPCR agonists), the GTP is removed from the binding buffer. Nonspecific binding was determined experimentally in the presence of 10^−4 M phentolamine. Unbound radioactivity was separated from membrane-bound radioactivity by filtration through Whatman GF/C filter paper. Filters are washed five times with 5 ml of cold HEM buffer containing 0.5 mMGTP (if added to the binding buffer but not if it was not added to the binding buffer). Bound radioactivity remaining on the filters was counted on an ICN gamma counter operating at 79.8% efficiency. Data are analyzed using Graphpad Prism.

CC(C)Cc1c(OCC2=NCCN2)cccc1N(C)S(C)(=O)=O [Compound 3, N-[3-(4,5-Dihydro-1H-imidazol-2-ylmethoxy)-2-isobutyl-phenyl]-N-methyl-methanesulfonamide]
paired pulse ratio (PPR) vs untreated, female ([1]; female 3×TG mice): higher | basal synaptic transmission / synaptic strength (input-output) ([1]; female 3×TG mice, CA1, approaching significance): increase synaptic strength; also recorded: increased | long term potentiation (LTP) vs untreated ([1]; female AD mice, 12 months of age, CA1): statistically significant (p<0.01) | paired pulse ratio (PPR) vs untreated, male ([1]; male 3×TG mice): increased PPR | effect on epinephrine-mediated inositol phosphate response at the α1A-AR [2]: no effect | effect on norepinephrine-mediated inositol phosphate response at the α1A-AR [2]: does not have any effect; also recorded: no effect | stimulation of inositol phosphate / agonist activity by the compound by itself ([2]; compound alone): cannot stimulate | binding behaviour against radiolabeled antagonist 125I-HEAT (full inhibition; competitive or allosteric) [3]: cannot fully inhibit | Ki ([3]; 0.5 mM GTP in binding buffer, competition with 125I-HEAT, read-out: affinity for the α1A-AR): ~100 nM | Ki ([3]; GTP removed from binding buffer, read-out: high affinity site): 0.001 nM
